Test results from US20100286136A1, “DIHYDRONAPHTHYRIDINYL AND RELATED COMPOUNDS FOR USE IN TREATING OPHTHALMOLOGICAL DISORDERS” (priority 2009, published 2010).

Molecular target: T1, CCR2b (Homo sapiens, UniProt P41597)
T1 construct: host or cells: AequoScreen CCR2b cells
T1 sequence (P41597 1-360 isoform P41597-2): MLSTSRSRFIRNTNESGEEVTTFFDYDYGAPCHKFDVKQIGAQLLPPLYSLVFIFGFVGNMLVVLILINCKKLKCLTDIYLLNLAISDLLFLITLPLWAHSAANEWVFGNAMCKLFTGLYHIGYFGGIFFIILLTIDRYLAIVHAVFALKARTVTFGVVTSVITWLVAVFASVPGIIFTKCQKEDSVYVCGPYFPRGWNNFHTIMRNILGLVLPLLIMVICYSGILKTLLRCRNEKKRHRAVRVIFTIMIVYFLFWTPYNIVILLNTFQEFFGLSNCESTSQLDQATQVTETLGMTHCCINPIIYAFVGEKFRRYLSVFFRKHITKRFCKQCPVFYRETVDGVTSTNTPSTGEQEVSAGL
Assay: AequoScreen CCR2b calcium flux assay, antagonist mode against reference agonist MCP-1
Assay type: cell-based
Conditions: AequoScreen CCR2b (FAST-060A) cells; inhibition of reference agonist MCP-1 at its EC80; read-out: IC50 (μM) Ca^++flux
Method: The biological activity of the compounds described herein can be evaluated using assays known in the art, such as the AequoScreen™ assay.
AequoScreen™ CCR2b (FAST-060A) cells grown to mid-log phase in culture media without antibiotics are detached with PBS-EDTA, centrifuged and resuspended in assay buffer (DMEM/HAM's F12 with HEPES, without phenol red+0.1% BSA protease free) at a concentration of 1×10^6 cells/mL. Cells are incubated at room temperature for at least 4 hours with coelenterazine h. Dose response curves are performed before testing. The reference agonist is MCP-1.
For agonist testing, 50 μL of cell suspension is mixed with 50 μL of test compound in a 96-well plate. The resulting emission of light is recorded using a Hamamatsu Functional Drug Screening System 6000 (FDSS 6000).
Following an incubation of 15 minutes after the first injection, 100 μL of the resulting cell suspension containing the test compound is mixed with 100 μL of the reference agonist in the 96 well test plate. The resulting emission of light is recorded using the same luminometer as for agonist testing.
Agonist activity of a test compound can be expressed as a percentage of the activity of the reference agonist at its EC100 concentration. Antagonist activity of a test compound can be expressed as a percentage of the inhibition of reference agonist activity at its EC80 concentration.

In the case of “3-Ethyl-6-((3-(methoxymethyl)-3-(3-(trifluoromethyl)-5,6,7,8-tetrahydro-1,6-naphthyridine-6-carbonyl)pyrrolidin-1-yl)methyl)benzo[d]oxazol-2(3H)-one [Example 42]”, the IC50 is reported as under 0.2 µM.

Molecule “5-Bromo-6-((3-(methoxymethyl)-3-(3-(trifluoromethyl)-5,6,7,8-tetrahydro-1,6-naphthyridine-6-carbonyl)pyrrolidin-1-yl)methyl)-3-methylbenzo[d]oxazol-2(3H)-one [Example 43]” has an IC50 of under 0.2 µM.

Cn1c(=O)ccc2ccc(CN3CCC(CC4CC4)(C(=O)N4CCc5ncc(C(F)(F)F)cc5C4)C3)cc21 (single isomer, unassigned) [Example 4, 5 (Enantiomer I)] showed an IC50 of under 0.2 µM.

Work on Cn1c(=O)ccc2ccc(CN3CCC(CC4CC4)(C(=O)N4CCc5ncc(C(F)(F)F)cc5C4)C3)cc21 (single isomer, unassigned) [Example 4, 5 (Enantiomer II)] yielded an IC50 of under 0.2 µM.

Molecule COCC1(C(=O)N2CCc3ncc(C(F)(F)F)cc3C2)CCN(Cc2ccc3ccc(=O)n(C)c3c2)C1 (single isomer, unassigned) [Example 26, 27 (Enantiomer I)] has an IC50 of under 0.2 µM.

Molecule COCC1(C(=O)N2CCc3ncc(C(F)(F)F)cc3C2)CCN(Cc2ccc3ccc(=O)n(C)c3c2)C1 (single isomer, unassigned) [Example 26, 27 (Enantiomer II)] has an IC50 of over 1 µM.

In the case of COCC1(C(=O)N2CCc3ncc(C(F)(F)F)cc3C2)CCN(C2CCC(O)(c3ccc(OC)nc3)CC2)C1 (single isomer, unassigned) [Example 30, 31 (Isomer I), (1-(4-Hydroxy-4-(6-methoxypyridin-3-yl)cyclohexyl)-3-(methoxymethyl)pyrrolidin-3-yl)(3-(trifluoromethyl)-7,8-dihydro-1,6-naphthyridin-6(5H)-yl)methanone], the IC50 is reported as under 0.2 µM.

COCC1(C(=O)N2CCc3ncc(C(F)(F)F)cc3C2)CCN(C2CCC(O)(c3ccc(OC)nc3)CC2)C1 (single isomer, unassigned) [Example 30, 31 (Isomer II), (1-(4-Hydroxy-4-(6-methoxypyridin-3-yl)cyclohexyl)-3-(methoxymethyl)pyrrolidin-3-yl)(3-(trifluoromethyl)-7,8-dihydro-1,6-naphthyridin-6(5H)-yl)methanone] gave an IC50 of over 1 µM.

COCC1(C(=O)N2CCc3ncc(C(F)(F)F)cc3C2)CCN(Cc2ccc3oc(=O)n(C)c3c2)C1 (single isomer, unassigned) [Example 40, 41 (Enantiomer I)] gave an IC50 of under 0.2 µM.

In the case of COCC1(C(=O)N2CCc3ncc(C(F)(F)F)cc3C2)CCN(Cc2ccc3oc(=O)n(C)c3c2)C1 (single isomer, unassigned) [Example 40, 41 (Enantiomer II)], the IC50 is reported as 0.2 to 1 µM.

In the case of COCC1(C(=O)N2CCc3ncc(C(F)(F)F)cc3C2)CCN(C2CCC(c3ccc(OC)nc3)CC2)C1 (single isomer, unassigned) [Example 50, 51 (Isomer I), (3-(Methoxymethyl)-1-(4-(6-methoxypyridin-3-yl)cyclohexyl)pyrrolidin-3-yl)(3-(trifluoromethyl)-7,8-dihydro-1,6-naphthyridin-6(5H)-yl)methanone], the IC50 is reported as under 0.2 µM.

With COCC1(C(=O)N2CCc3ncc(C(F)(F)F)cc3C2)CCN(C2CCC(c3ccc(OC)nc3)CC2)C1 (single isomer, unassigned) [Example 50, 51 (Isomer II), (3-(Methoxymethyl)-1-(4-(6-methoxypyridin-3-yl)cyclohexyl)pyrrolidin-3-yl)(3-(trifluoromethyl)-7,8-dihydro-1,6-naphthyridin-6(5H)-yl)methanone] the IC50 was under 0.2 µM.

COCC1(C(=O)N2CCc3ncc(C(F)(F)F)cc3C2)CCN(C2CCC(c3cncnc3)CC2)C1 (single isomer, unassigned) [Example 54, 55 (Isomer II), (3-(Methoxymethyl)-1-(4-(pyrimidin-5-yl)cyclohexyl)pyrrolidin-3-yl)(3-(trifluoromethyl)-7,8-dihydro-1,6-naphthyridin-6(5H)-yl)methanone] showed an IC50 of 0.2 to 1 µM.

COCC1(C(=O)N2CCc3ncc(C(F)(F)F)cc3C2)CCN(C2CCC(c3ccc(F)cc3)CC2)C1 (single isomer, unassigned) [Example 56, 57 (Isomer I), (1-(4-(4-Fluorophenyl)cyclohexyl)-3-(methoxymethyl)pyrrolidin-3-yl)(3-(trifluoromethyl)-7,8-dihydro-1,6-naphthyridin-6(5H)-yl)methanone] was tested, and the IC50 was under 0.2 µM.

CC(C)CC1(C(=O)N2CCc3ncc(C(F)(F)F)cc3C2)CCN(Cc2ccc3ccc(=O)n(C)c3c2)CC1 [Example 1, 7-((4-Isobutyl-4-(3-(trifluoromethyl)-5,6,7,8-tetrahydro-1,6-naphthyridine-6-carbonyl)piperidin-1-yl)methyl)-1-methylquinolin-2(1H)-one] gave an IC50 of 0.2 to 1 µM.

With COc1cc(CN2CCC(CC(C)C)(C(=O)N3CCc4ncc(C(F)(F)F)cc4C3)CC2)ccc1O [Example 2, (1-(4-Hydroxy-3-methoxybenzyl)-4-isobutylpiperidin-4-yl)(3-(trifluoromethyl)-7,8-dihydro-1,6-naphthyridin-6(5H)-yl)methanone] the IC50 was over 1 µM.

In the case of Cn1c(=O)ccc2ccc(CN3CCC(CC4CC4)(C(=O)N4CCc5ncc(C(F)(F)F)cc5C4)C3)cc21 (centres unmarked) [Example 3, 7-((3-(Cyclopropylmethyl)-3-(3-(trifluoromethyl)-5,6,7,8-tetrahydro-1,6-naphthyridine-6-carbonyl)pyrrolidin-1-yl)methyl)-1-methylquinolin-2(1H)-one], the IC50 is reported as under 0.2 µM.

In the case of COc1cc(CN2CCC(CC3CC3)(C(=O)N3CCc4ncc(C(F)(F)F)cc4C3)C2)ccc1O (centres unmarked) [Example 6, (1-(4-Hydroxy-3-methoxybenzyl)-3-(cyclopropylmethyl)pyrrolidin-3-yl)(3-(trifluoromethyl)-7,8-dihydro-1,6-naphthyridin-6(5H)-yl)methanone], the IC50 is reported as 0.2 to 1 µM.

Work on O=C(N1CCc2ncc(C(F)(F)F)cc2C1)C1(CC2CC2)CCN(Cc2ccc(O)c(F)c2)C1 (centres unmarked) [Example 7, (3-(Cyclopropylmethyl)-1-(3-fluoro-4-hydroxybenzyl)pyrrolidin-3-yl)(3-(trifluoromethyl)-7,8-dihydro-1,6-naphthyridin-6(5H)-yl)methanone] yielded an IC50 of over 1 µM.

Molecule O=C(N1CCc2ncc(C(F)(F)F)cc2C1)C1(CC2CC2)CCN(CC2CCOCC2)C1 (centres unmarked) [Example 8, (3-(Cyclopropylmethyl)-1-((tetrahydro-2H-pyran-4-yl)methyl)pyrrolidin-3-yl)(3-(trifluoromethyl)-7,8-dihydro-1,6-naphthyridin-6(5H)-yl)methanone] has an IC50 of 0.2 to 1 µM.

Work on CC1(C)CC(CN2CCC(CC3CC3)(C(=O)N3CCc4ncc(C(F)(F)F)cc4C3)C2)CCO1 (centres unmarked) [Example 9, (3-(Cyclopropylmethyl)-1-((2,2-dimethyltetrahydro-2H-pyran-4-yl)methyl)pyrrolidin-3-yl)(3-(trifluoromethyl)-7,8-dihydro-1,6-naphthyridin-6(5H)-yl)methanone] yielded an IC50 of 0.2 to 1 µM.

For COc1cc2c(cc1CN1CCC(CC3CC3)(C(=O)N3CCc4ncc(C(F)(F)F)cc4C3)C1)OC(C)C2 (centres unmarked) [Example 10, (3-(Cyclopropylmethyl)-1-((5-methoxy-2-methyl-2,3-dihydrobenzofuran-6-yl)methyl)pyrrolidin-3-yl)(3-(trifluoromethyl)-7,8-dihydro-1,6-naphthyridin-6(5H)-yl)methanone], the IC50 was over 1 µM.

Cn1c(=O)sc2ccc(CN3CCC(CC4CC4)(C(=O)N4CCc5ncc(C(F)(F)F)cc5C4)C3)cc21 (centres unmarked) [Example 11, 5-((3-(Cyclopropylmethyl)-3-(3-(trifluoromethyl)-5,6,7,8-tetrahydro-1,6-naphthyridine-6-carbonyl)pyrrolidin-1-yl)methyl)-3-methylbenzo[d]thiazol-2(3H)-one] gave an IC50 of under 0.2 µM.

With O=C(N1CCc2ncc(C(F)(F)F)cc2C1)C1(CC2CC2)CCN(Cc2ccc3sc(=O)[nH]c3c2)C1 (centres unmarked) [Example 12, 5-((3-(Cyclopropylmethyl)-3-(3-(trifluoromethyl)-5,6,7,8-tetrahydro-1,6-naphthyridine-6-carbonyl)pyrrolidin-1-yl)methyl)benzo[d]thiazol-2(3H)-one] the IC50 was 0.2 to 1 µM.

Work on O=C(N1CCc2ncc(C(F)(F)F)cc2C1)C1(CC2CC2)CCN(Cc2ccc3ccc(=O)[nH]c3c2)C1 (centres unmarked) [Example 15, 7-((3-(Cyclopropylmethyl)-3-(3-(trifluoromethyl)-5,6,7,8-tetrahydro-1,6-naphthyridin-6-carbonyl)pyrrolidin-1-yl)methyl)quinolin-2(1H)-one] yielded an IC50 of over 1 µM.

CC(c1ccc2c(c1)n(C)c(=O)n2C)N1CCC(CC2CC2)(C(=O)N2CCc3ncc(C(F)(F)F)cc3C2)C1 (centres unmarked) [Example 16, 5-(1-(3-(Cyclopropylmethyl)-3-(3-(trifluoromethyl)-5,6,7,8-tetrahydro-1,6-naphthyridine-6-carbonyl)pyrrolidin-1-yl)ethyl)-1,3-dimethyl-1H-benzo[d]imidazol-2(3H)-one] was tested, and the IC50 was over 1 µM.
